PubChem BioAssay (NCI)
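Following 48 hours of exposure in 96-well plates, responses at five concentrations were used to interpolate endpoints linearly. At the TGI there is no net growth.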

Experiments:
Experiment in all cases: NCI anticancer screen, dose series, 48 h
LOX IMVI melanoma = system: LOX IMVI melanoma
TK-10 renal = system: TK-10 renal
IGROV1 ovarian = system: IGROV1 ovarian
EKVX NSCLC = system: EKVX NSCLC
BT-549 breast = system: BT-549 breast
HS 578T breast = system: HS 578T breast
MALME-3M melanoma = system: MALME-3M melanoma
HCT-15 colon = system: HCT-15 colon
A549 NSCLC = system: A549 NSCLC
SK-MEL-2 melanoma = system: SK-MEL-2 melanoma
MOLT-4 leukemia = system: MOLT-4 leukemia
MDA-MB-231 breast = system: MDA-MB-231 breast
DU-145 prostate = system: DU-145 prostate
KM12 colon = system: KM12 colon
OVCAR-3 ovarian = system: OVCAR-3 ovarian
HOP-92 NSCLC = system: HOP-92 NSCLC
SNB-19 CNS = system: SNB-19 CNS
SF-539 CNS = system: SF-539 CNS
SK-MEL-5 melanoma = system: SK-MEL-5 melanoma
COLO 205 colon = system: COLO 205 colon
SF-268 CNS = system: SF-268 CNS
RXF 393 renal = system: RXF 393 renal
K-562 leukemia = system: K-562 leukemia
RPMI-8226 leukemia = system: RPMI-8226 leukemia
MDA-MB-435 = system: MDA-MB-435
SW-620 colon = system: SW-620 colon
SNB-75 CNS = system: SNB-75 CNS
CCRF-CEM leukemia = system: CCRF-CEM leukemia
NCI/ADR-RES ovarian = system: NCI/ADR-RES ovarian
MDA-N = system: MDA-N
PC-3 prostate = system: PC-3 prostate
UACC-257 melanoma = system: UACC-257 melanoma
SK-OV-3 ovarian = system: SK-OV-3 ovarian
CAKI-1 renal = system: CAKI-1 renal
SF-295 CNS = system: SF-295 CNS
A498 renal = system: A498 renal
T-47D breast = system: T-47D breast
M14 melanoma = system: M14 melanoma
MCF7 breast = system: MCF7 breast
U251 CNS = system: U251 CNS
SN12C renal = system: SN12C renal
UO-31 renal = system: UO-31 renal
OVCAR-5 ovarian = system: OVCAR-5 ovarian
SK-MEL-28 melanoma = system: SK-MEL-28 melanoma
HOP-62 NSCLC = system: HOP-62 NSCLC
786-0 renal = system: 786-0 renal
OVCAR-4 ovarian = system: OVCAR-4 ovarian
HCT-116 colon = system: HCT-116 colon
NCI-H23 lung = system: NCI-H23 lung
NCI-H226 lung = system: NCI-H226 lung
NCI-H460 lung = system: NCI-H460 lung
HT29 colon = system: HT29 colon
HCC-2998 colon = system: HCC-2998 colon
ACHN renal = system: ACHN renal
OVCAR-8 ovarian = system: OVCAR-8 ovarian
HL-60(TB) leukemia = system: HL-60(TB) leukemia
UACC-62 melanoma = system: UACC-62 melanoma
NCI-H522 lung = system: NCI-H522 lung
SR leukemia = system: SR leukemia

CCCCCCSC[C@H](OC(C)=O)[C@@H](OC(C)=O)[C@@H](OC(C)=O)[C@@H](COC(C)=O)OC(C)=O
TGI (LOX IMVI melanoma): > 100 µM
TGI (TK-10 renal): > 100 µM
TGI (IGROV1 ovarian): > 100 µM
TGI (EKVX NSCLC): > 100 µM
TGI (BT-549 breast): > 100 µM
TGI (HS 578T breast): > 100 µM
TGI (MALME-3M melanoma): > 100 µM
TGI (HCT-15 colon): > 100 µM
TGI (A549 NSCLC): > 100 µM
TGI (SK-MEL-2 melanoma): > 100 µM
TGI (MOLT-4 leukemia): 90.5 µM
TGI (MDA-MB-231 breast): > 100 µM
TGI (DU-145 prostate): > 100 µM
TGI (KM12 colon): > 100 µM
TGI (OVCAR-3 ovarian): > 100 µM
TGI (HOP-92 NSCLC): > 100 µM
TGI (SNB-19 CNS): > 100 µM
TGI (SF-539 CNS): > 100 µM
TGI (SK-MEL-5 melanoma): 62.1 µM
TGI (COLO 205 colon): > 100 µM
TGI (SF-268 CNS): > 100 µM
TGI (RXF 393 renal): > 100 µM
TGI (K-562 leukemia): > 100 µM
TGI (RPMI-8226 leukemia): 50.1 µM
TGI (MDA-MB-435): > 100 µM
TGI (SW-620 colon): > 100 µM
TGI (SNB-75 CNS): > 100 µM
TGI (CCRF-CEM leukemia): > 100 µM
TGI (NCI/ADR-RES ovarian): > 100 µM
TGI (MDA-N): > 100 µM
TGI (PC-3 prostate): 99.6 µM
TGI (UACC-257 melanoma): > 100 µM
TGI (SK-OV-3 ovarian): > 100 µM
TGI (CAKI-1 renal): > 100 µM
TGI (SF-295 CNS): > 100 µM
TGI (A498 renal): > 100 µM
TGI (T-47D breast): > 100 µM
TGI (M14 melanoma): > 100 µM
TGI (MCF7 breast): > 100 µM
TGI (U251 CNS): > 100 µM
TGI (SN12C renal): > 100 µM
TGI (UO-31 renal): > 100 µM
TGI (OVCAR-5 ovarian): > 100 µM
TGI (SK-MEL-28 melanoma): > 100 µM
TGI (HOP-62 NSCLC): > 100 µM
TGI (786-0 renal): > 100 µM
TGI (OVCAR-4 ovarian): > 100 µM
TGI (HCT-116 colon): > 100 µM
TGI (NCI-H23 lung): > 100 µM
TGI (NCI-H226 lung): > 100 µM
TGI (NCI-H460 lung): > 100 µM
TGI (HT29 colon): > 100 µM
TGI (HCC-2998 colon): > 100 µM
TGI (ACHN renal): > 100 µM
TGI (OVCAR-8 ovarian): > 100 µM
TGI (HL-60(TB) leukemia): > 100 µM
TGI (UACC-62 melanoma): > 100 µM

COc1oc(C(=O)NC2CCCCC2)c(-c2ccc(Cl)cc2)c1S(=O)(=O)c1ccccc1
TGI (LOX IMVI melanoma): 7.54 µM
TGI (TK-10 renal): > 89.1 µM
TGI (IGROV1 ovarian): 3.35 µM
TGI (EKVX NSCLC): > 30.9 µM
TGI (BT-549 breast): > 22.1 µM
TGI (HS 578T breast): 68.6 µM
TGI (MALME-3M melanoma): > 45.9 µM
TGI (HCT-15 colon): > 100 µM
TGI (A549 NSCLC): > 100 µM
TGI (SK-MEL-2 melanoma): 39 µM
TGI (MOLT-4 leukemia): > 75.2 µM
TGI (DU-145 prostate): > 74.4 µM
TGI (KM12 colon): 25.2 µM
TGI (OVCAR-3 ovarian): 3.59 µM
TGI (HOP-92 NSCLC): 3.06 µM
TGI (SNB-19 CNS): > 100 µM
TGI (SF-539 CNS): 14.4 µM
TGI (SK-MEL-5 melanoma): > 100 µM
TGI (COLO 205 colon): 44.9 µM
TGI (SF-268 CNS): 10.8 µM
TGI (RXF 393 renal): 9.76 µM
TGI (K-562 leukemia): > 52.4 µM
TGI (RPMI-8226 leukemia): 5.59 µM
TGI (MDA-MB-435): 28.9 µM
TGI (SW-620 colon): > 100 µM
TGI (SNB-75 CNS): > 100 µM
TGI (CCRF-CEM leukemia): 4.66 µM
TGI (NCI/ADR-RES ovarian): 8.42 µM
TGI (MDA-N): > 100 µM
TGI (NCI-H522 lung): 2.94 µM
TGI (PC-3 prostate): > 41.3 µM
TGI (SK-OV-3 ovarian): > 100 µM
TGI (CAKI-1 renal): 10.7 µM
TGI (SR leukemia): > 25.3 µM
TGI (SF-295 CNS): > 62 µM
TGI (A498 renal): 4.08 µM
TGI (T-47D breast): > 100 µM
TGI (M14 melanoma): > 100 µM
TGI (MCF7 breast): > 100 µM
TGI (U251 CNS): 7.61 µM
TGI (SN12C renal): > 46.2 µM
TGI (UO-31 renal): 3.22 µM
TGI (OVCAR-5 ovarian): > 100 µM
TGI (SK-MEL-28 melanoma): > 100 µM
TGI (HOP-62 NSCLC): 22 µM
TGI (786-0 renal): 3.59 µM
TGI (OVCAR-4 ovarian): 3.51 µM
TGI (HCT-116 colon): > 100 µM
TGI (NCI-H23 lung): > 25.5 µM
TGI (NCI-H226 lung): > 100 µM
TGI (NCI-H460 lung): > 36.1 µM
TGI (HT29 colon): 5.42 µM
TGI (HCC-2998 colon): > 100 µM
TGI (ACHN renal): > 100 µM
TGI (OVCAR-8 ovarian): > 19.8 µM
TGI (HL-60(TB) leukemia): 6.4 µM
TGI (UACC-62 melanoma): 72.2 µM

CC=C(CBr)CCC(Br)C(C)(C)Cl (mixture of isomers)
TGI (TK-10 renal): > 10 µM
TGI (IGROV1 ovarian): > 10 µM
TGI (EKVX NSCLC): > 10 µM
TGI (BT-549 breast): > 10 µM
TGI (HS 578T breast): > 10 µM
TGI (MALME-3M melanoma): > 10 µM
TGI (HCT-15 colon): > 10 µM
TGI (A549 NSCLC): > 10 µM
TGI (SK-MEL-2 melanoma): > 10 µM
TGI (MOLT-4 leukemia): > 10 µM
TGI (MDA-MB-231 breast): > 10 µM
TGI (DU-145 prostate): > 10 µM
TGI (KM12 colon): > 10 µM
TGI (OVCAR-3 ovarian): > 10 µM
TGI (HOP-92 NSCLC): > 10 µM
TGI (SNB-19 CNS): > 10 µM
TGI (SF-539 CNS): > 10 µM
TGI (SK-MEL-5 melanoma): > 10 µM
TGI (COLO 205 colon): > 10 µM
TGI (SF-268 CNS): > 10 µM
TGI (RXF 393 renal): > 10 µM
TGI (K-562 leukemia): > 10 µM
TGI (RPMI-8226 leukemia): > 10 µM
TGI (MDA-MB-435): > 10 µM
TGI (SW-620 colon): > 10 µM
TGI (SNB-75 CNS): > 10 µM
TGI (CCRF-CEM leukemia): > 10 µM
TGI (NCI/ADR-RES ovarian): > 10 µM
TGI (MDA-N): > 10 µM
TGI (NCI-H522 lung): > 10 µM
TGI (PC-3 prostate): > 10 µM
TGI (UACC-257 melanoma): > 10 µM
TGI (SK-OV-3 ovarian): > 10 µM
TGI (CAKI-1 renal): > 10 µM
TGI (SF-295 CNS): > 10 µM
TGI (A498 renal): > 10 µM
TGI (T-47D breast): > 10 µM
TGI (M14 melanoma): > 10 µM
TGI (MCF7 breast): > 10 µM
TGI (U251 CNS): > 10 µM
TGI (SN12C renal): > 10 µM
TGI (UO-31 renal): > 10 µM
TGI (OVCAR-5 ovarian): > 10 µM
TGI (SK-MEL-28 melanoma): > 10 µM
TGI (HOP-62 NSCLC): > 10 µM
TGI (786-0 renal): > 10 µM
TGI (OVCAR-4 ovarian): > 10 µM
TGI (HCT-116 colon): > 10 µM
TGI (NCI-H23 lung): > 10 µM
TGI (NCI-H226 lung): > 10 µM
TGI (NCI-H460 lung): > 10 µM
TGI (HT29 colon): > 10 µM
TGI (HCC-2998 colon): > 10 µM
TGI (ACHN renal): > 10 µM
TGI (OVCAR-8 ovarian): > 10 µM
